In experiment [1] the target is T1, TREK-1 (Rattus norvegicus, UniProt Q920B6).
T1 sequence (Q920B6 1-426): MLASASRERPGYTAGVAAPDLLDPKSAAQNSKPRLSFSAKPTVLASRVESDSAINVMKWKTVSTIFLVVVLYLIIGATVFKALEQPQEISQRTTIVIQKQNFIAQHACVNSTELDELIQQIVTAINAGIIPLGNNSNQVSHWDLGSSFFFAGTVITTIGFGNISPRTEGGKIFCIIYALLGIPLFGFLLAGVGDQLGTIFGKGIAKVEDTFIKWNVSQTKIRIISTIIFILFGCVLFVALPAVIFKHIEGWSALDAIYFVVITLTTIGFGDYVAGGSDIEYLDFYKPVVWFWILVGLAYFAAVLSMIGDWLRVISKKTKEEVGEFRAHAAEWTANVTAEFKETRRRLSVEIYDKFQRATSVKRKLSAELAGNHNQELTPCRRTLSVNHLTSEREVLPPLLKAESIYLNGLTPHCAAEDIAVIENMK
In kind it is cell-based.

Experiment [2] has as its target T2, TRESK (Homo sapiens, UniProt Q7Z418).
T2 sequence (Q7Z418 1-384): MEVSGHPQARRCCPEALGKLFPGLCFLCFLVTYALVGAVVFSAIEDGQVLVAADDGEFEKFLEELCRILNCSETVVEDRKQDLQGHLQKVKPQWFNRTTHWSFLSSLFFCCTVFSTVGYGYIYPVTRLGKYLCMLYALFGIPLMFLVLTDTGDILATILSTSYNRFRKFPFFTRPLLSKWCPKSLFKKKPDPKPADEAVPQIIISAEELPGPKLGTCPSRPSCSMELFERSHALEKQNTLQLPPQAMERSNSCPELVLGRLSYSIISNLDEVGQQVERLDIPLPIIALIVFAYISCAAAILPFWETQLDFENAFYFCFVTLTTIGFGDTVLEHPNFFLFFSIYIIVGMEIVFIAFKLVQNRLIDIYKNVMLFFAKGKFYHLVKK
In words: QA ion block of TRESK currents, giant inside-out patches from Xenopus oocytes. In kind it is cell-based.

For orientation: IC50 means the concentration at which inhibition is half-maximal. For the molecule `CC[N+](CC)(CC)CC` [TEA, Tetraethylammonium chloride], the IC50 in experiment [1] is roughly 60 mM; in experiment [2] it was 800 ± 100 µM.

In general, inhibition refers to the drop in the measured response relative to a control, in per cent. For the molecule `CCCC[N+](CCCC)(CCCC)CCCC` [TButA, Tetrabutylammonium bromide], the inhibition at 5000 µM in experiment [1] (read-out: inhibition of TREK-1 current) stood at 60%. The molecule also returned an IC50 in experiment [2] of 7 ± 1 µM. Also, the “recovery from inhibition (kinetics)” value in experiment [2] (TRESK, 5 μM, −80 mV) was “fairly rapid”.

(Values after publication PMC3181484 (The EMBO Journal, 2011).)
